For assay [1], the target named is T1, full-length human AR (Homo sapiens, UniProt P10275).
T1 construct: expression vector encoding full-length human AR; expressed in transfected cells; host or cells: HEK293 (hAR/HEK293 cells)
T1 sequence (P10275 1-920): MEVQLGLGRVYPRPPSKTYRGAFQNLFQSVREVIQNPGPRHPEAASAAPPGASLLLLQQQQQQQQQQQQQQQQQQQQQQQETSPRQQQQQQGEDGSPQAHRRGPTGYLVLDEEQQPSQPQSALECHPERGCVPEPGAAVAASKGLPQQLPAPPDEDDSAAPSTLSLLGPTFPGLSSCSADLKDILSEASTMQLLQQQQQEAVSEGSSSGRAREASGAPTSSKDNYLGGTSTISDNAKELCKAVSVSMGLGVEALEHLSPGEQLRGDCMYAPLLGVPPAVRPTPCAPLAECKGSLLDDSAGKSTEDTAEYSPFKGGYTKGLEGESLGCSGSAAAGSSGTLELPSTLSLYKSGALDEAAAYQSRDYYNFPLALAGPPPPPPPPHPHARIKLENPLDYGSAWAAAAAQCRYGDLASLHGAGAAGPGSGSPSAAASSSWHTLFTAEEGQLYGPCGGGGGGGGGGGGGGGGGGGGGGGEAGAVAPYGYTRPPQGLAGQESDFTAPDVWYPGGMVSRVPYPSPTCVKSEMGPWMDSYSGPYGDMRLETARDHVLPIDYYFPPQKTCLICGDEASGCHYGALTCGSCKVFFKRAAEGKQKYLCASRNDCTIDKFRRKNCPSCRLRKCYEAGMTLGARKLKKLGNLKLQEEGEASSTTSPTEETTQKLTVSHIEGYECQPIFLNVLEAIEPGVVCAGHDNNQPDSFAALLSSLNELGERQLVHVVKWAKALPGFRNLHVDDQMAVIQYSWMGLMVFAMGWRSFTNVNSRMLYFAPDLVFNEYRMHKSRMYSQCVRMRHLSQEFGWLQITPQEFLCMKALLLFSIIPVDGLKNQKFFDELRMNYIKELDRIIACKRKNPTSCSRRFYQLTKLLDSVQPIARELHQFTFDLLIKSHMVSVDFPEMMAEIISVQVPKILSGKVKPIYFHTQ
Put plainly: AR antagonism, reporter gene assay in hAR/HEK293 cells. Particulars: HEK293 cells stably transfected with full-length human AR and androgen responsive luciferase reporter; co-treated with submaximal testosterone (usually 0.45 nM); 1% DMSO; triplicates. In kind it is cell-based. On the procedure: Antagonism of test compounds for AR was measured by reporter gene assay in human embryonic kidney (HEK293) cells stably transfected with an expression vector encoding full-length human AR and androgen responsive luciferase reporter gene construct (hAR/HEK293 cells). To determine antagonism for hAR, the cells were treated simultaneously with increasing concentrations of the test compound and submaximal concentration of testosterone (usually 0.45 nM). The final DMSO concentration was 1%. All test compounds were studied in triplicates. The cells were incubated for […] before measurement of luciferase activity using Luciferase Assay System (Promega Corporation).
Background: In a reporter assay the amount or activity of a reporter protein is the signal.

Assay [2] addresses T2, 17,20 lyase (CYP17) (Homo sapiens, UniProt P05093).
T2 construct: endogenous in cells; host or cells: H295R human adrenocortical carcinoma cells
T2 sequence (P05093 1-508): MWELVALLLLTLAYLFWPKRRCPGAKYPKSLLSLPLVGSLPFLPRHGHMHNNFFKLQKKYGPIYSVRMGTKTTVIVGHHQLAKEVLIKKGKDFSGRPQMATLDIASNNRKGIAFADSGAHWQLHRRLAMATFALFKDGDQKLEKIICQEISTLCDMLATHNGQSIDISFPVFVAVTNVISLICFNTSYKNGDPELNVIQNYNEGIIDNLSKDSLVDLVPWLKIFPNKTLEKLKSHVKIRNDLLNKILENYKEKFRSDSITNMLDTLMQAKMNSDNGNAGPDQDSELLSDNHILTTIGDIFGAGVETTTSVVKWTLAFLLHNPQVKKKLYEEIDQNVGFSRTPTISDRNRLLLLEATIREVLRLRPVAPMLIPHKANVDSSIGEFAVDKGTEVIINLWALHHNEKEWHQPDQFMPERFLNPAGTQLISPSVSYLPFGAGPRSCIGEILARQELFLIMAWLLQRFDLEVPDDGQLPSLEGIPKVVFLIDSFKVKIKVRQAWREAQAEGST
Put plainly: 17,20 lyase (CYP17) inhibition, acetic acid release assay (AARA) on H295R cells. The assay is classed as cell-based. On the procedure: The ability of the test compounds to inhibit 17,20 lyase catalysed conversion of 17α-hydroxypregnenolone to dehydroepiandrosterone and acetic acid was measured by acetic acid release assay (AARA) on human H295R adrenocortical carcinoma cell line (Grigoryev, D. N. et al., Analytical Biochemistry 1999; 267:319-330). […] The final DMSO concentration was 1%. Cell culture medium was extracted with dextran-coated charcoal suspension (Isomaa, V. et al., Endocrinology 1982; 111(3):833-843). ^3H-acetic acid was determined by mixing 100 μl of supernatant fraction in 200 μl of scintillation fluid (OptiPhase SuperMix, Perkin Elmer). Radioactivity was measured using a Microbeta scintillation counter (1450 MicroBeta Trilux, Wallac). All the test compounds were studied in quadruplicates.

Setting [3] is: human H295R adrenocortical carcinoma cells, overnight (16-19 h) with 17α-[21-3H]hydroxypregnenolone, 3H-acetic acid release, 1% DMSO, quadruplicates, read-out: CYP17 inhibition IC50.

Data on 13 compounds can be found in patent US9890139B2, “CYP17 inhibitors/antiandrogens” (Orion Corporation, priority 2013, dated 2018).

Structures are written as SMILES. Read-outs that look alike come from different tables or passages of the source.

In general, IC50 refers to the concentration that gives 50% inhibition. Regarding `CCN(c1ccc(C#N)c(Cl)c1)C1CCCC(n2ccnc2)C1` (single isomer, unassigned; diastereomer 4) [Ex. 91 cis-diastereomer, 4-((3-(1H-imidazol-1-yl)cyclohexyl)(ethyl)amino)-2-chlorobenzonitrile], the IC50 in assay [1] was determined as 64 nM; in assay [2] it was 36 nM.
In the case of `CCN(c1ccc(C#N)c(C(F)(F)F)c1)C1CCCC(n2cncn2)C1` (single isomer, unassigned; diastereomer 4) [Ex. 209 cis-diastereomer, 4-((3-(1H-1,2,4-triazol-1-yl)cyclohexyl)(ethyl)amino)-2-(trifluoromethyl)-benzonitrile], the IC50 in assay [1] turned out to be 56 nM; in assay [2], 154 nM.
As for `CCN(c1ccc(C#N)c(Cl)c1)C1C=C(n2ccnc2)CCC1(C)C` (single isomer, unassigned; enantiomer 1) [Ex. 21, 4-((3-(1H-imidazol-1-yl)-6,6-dimethylcyclohex-2-enyl)(ethyl)amino)-2-chlorobenzonitrile (enantiomer 1)], the IC50 was found to be 19 nM in assay [1] and 76 nM in assay [2].
In the same order, the values of `CN(c1ccc(C#N)c(Cl)c1)[C@@H]1C=C(n2ccnc2)[C@H](O)CC1(C)C` (single isomer, unassigned; enantiomer 1) [Ex. 253(b), cis-2-Chloro-4-{[4-hydroxy-3-(1H-imidazol-1-yl)-6,6-dimethylcyclohex-2-enyl](methyl)amino}benzonitrile (enantiomer 1)] are 140 nM and 124 nM.
For `CCN(c1ccc(C#N)c(C(F)(F)F)c1)C1CCC=C(c2ccncc2OC)C1` (single isomer, unassigned; isomer 4) [Ex. 84 3,4-isomer, 4-(Ethyl(3-(3-methoxypyridin-4-yl)cyclohex-3-en-1-yl)amino)-2-(trifluoromethyl)benzonitrile], the IC50 was determined as 50 nM in assay [1] and 96 nM in assay [2].
On to `CCN(c1ccc(C#N)c(C(F)(F)F)c1)C1CCC=C(c2cncn2CC)C1` (single isomer, unassigned; isomer 4) [Ex. 208 1,5-isomer, 4-(ethyl(3-(1-ethyl-1H-imidazol-5-yl)cyclohex-3-en-1-yl)-amino)-2-(trifluoromethyl)benzonitrile], for which the IC50 came out at 34 nM in assay [1] and 137 nM in assay [2].
As for `CCN(c1ccc(C#N)c(C(F)(F)F)c1)C1C=C(n2ccnc2)CCC1` (centres unmarked) [Ex. 63, 4-((3-(1H-imidazol-1-yl)cyclohex-2-en-1-yl)(ethyl)amino)-2-(trifluoromethyl)benzonitrile], the results for the IC50 in assay [1] and in assay [2] were 34 nM and 70 nM, respectively.
On to `CCCn1cncc1C1=CCC(N(CC)c2ccc(C#N)c(C(F)(F)F)c2)C1` (centres unmarked) [Ex. 103, 4-(Ethyl(3-(1-propyl-1H-imidazol-5-yl)cyclopent-3-en-1-yl)amino)-2-(trifluoromethyl)benzonitrile], for which the IC50 in assay [1] was found to be 58 nM; in assay [2], 29 nM.
For the compound `CCN(c1ccc(C#N)c(C(F)(F)F)c1)C1C=C(n2ccnc2)C2(CC1)CC2` (centres unmarked) [Ex. 107, 4-((4-(1H-imidazol-1-yl)spiro[2.5]oct-4-en-6-yl)(ethyl)amino)-2-(trifluoromethyl)benzonitrile], the figures for the half-maximal inhibitory concentration (IC50) in assay [1] and in assay [2] were 51 nM and 33 nM, respectively.
As to `CCN(c1ccc(C#N)c(C(F)(F)F)c1)[C@@H]1CCCN(c2ccncc2F)C1` [Ex. 160, (R)-4-(Ethyl(1-(3-fluoropyridin-4-yl)piperidin-3-yl)amino)-2-(trifluoromethyl)benzonitrile], the IC50 in assay [1] was 27 nM; in assay [2], 111 nM.
In the case of `CN(c1ccc(C#N)c(C(F)(F)F)n1)C1C=C(n2ccnc2)CCC1(C)C` (centres unmarked) [Ex. 250, 6-{[3-(1H-Imidazol-1-yl)-6,6-dimethylcyclohex-2-enyl](methyl)amino}-2-(trifluoromethyl)nicotinonitrile], the IC50 amounted to 205 nM in assay [1] and 27 nM in assay [2] (setting [3]).
Consider `COc1cc(N(C)C2C=C(n3ccnc3)CCC2(C)C)ccc1C#N` (centres unmarked) [Ex. 252, 4-{[3-(1H-Imidazol-1-yl)-6,6-dimethylcyclohex-2-enyl](methyl)amino}-2-methoxybenzonitrile], for which the IC50 in assay [1] was determined as 141 nM; in assay [2] (setting [3]) it was 33 nM.
`CCN(c1ccc(C#N)c(C(F)(F)F)c1)C1CC=C(n2ccnc2)C1(C)C` (centres unmarked) [Ex. 275, 4-((3-(1H-imidazol-1-yl)-2,2-dimethylcyclopent-3-en-1-yl)(ethyl)amino)-2-(trifluoromethyl)benzonitrile]: the IC50 in assay [1] came out at 63 nM; in assay [2] it was 82 nM.
